Data reported in ChEMBL document CHEMBL1127189, “A facile synthesis of the novel Neurokinin A antagonist SR 48968” (Bioorg Med Chem Lett, 1993).

Assays:
Cavia porcellus [1] = experiment: Intraperitoneal dose required for inhibition of [Nle10]-NKA4-10 induced bronchoconstriction in guinea pig; type: functional; settings: ip
Cavia porcellus [2] = experiment: Intravenous dose required for inhibition of [Nle10]-NKA4-10 induced bronchoconstriction in guinea pig; type: functional

CC(=O)NC1(c2ccccc2)CCN(CC[C@H](CN(C)C(=O)c2ccccc2)c2ccc(Cl)c(Cl)c2)CC1 [SAREDUTANT]
ED50 (Cavia porcellus [1]): 0.35 mg/kg | ED50 (Cavia porcellus [2]): 0.037 mg/kg
